Where “and” joins values, the source holds several entries; their conditions need not be identical. Identical values can stand only once.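 Tested at 5 concentrations; 48 h exposure; 96-well plates; endpoints linearly interpolated, else capped at highest concentration. GI50: concentration for 50% inhibition of growth. TGI: total growth inhibition.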
How the values were obtained:
Assay in all cases: NCI tumour cell line growth inhibition, 48 h
[1] = test system: NCI-H522 lung
[2] = test system: DMS 114 small cell lung
[3] = test system: K-562 leukemia
[4] = test system: U251 CNS
[5] = test system: HT29 colon
[6] = test system: SW-620 colon
[7] = test system: LOX IMVI melanoma
[8] = test system: TK-10 renal
[9] = test system: HCT-116 colon
[10] = test system: DLD-1 colon

## Cc1[nH]c(=O)[nH]c(=O)c1N(CCF)CCCl
[1]
  TGI: 375 µM and 416 µM and 519 µM
[2]
  GI50: 148 µM
  TGI: 371 µM and 771 µM and 436 µM
[3]
  GI50: 403 µM and 215 µM
  TGI: 757 µM and 1350 µM and 1110 µM
[4]
  GI50: 212 µM
  TGI: 693 µM and 1220 µM and 1200 µM
[5]
  TGI: 1370 µM and 1230 µM
[6]
  GI50: 321 µM and 289 µM and 147 µM
  TGI: 1100 µM and 805 µM
[7]
  GI50: 236 µM and 290 µM and 139 µM
  TGI: 726 µM and 671 µM and 787 µM
[8]
  TGI: 1070 µM
[9]
  GI50: 243 µM and 491 µM
  TGI: 662 µM and 1570 µM and 1010 µM
[10]
  GI50: 303 µM and 472 µM
  TGI: 1250 µM and 1290 µM and 830 µM

## CCC/C(=N\NC(=S)N1CCN(c2ccccn2)CC1)c1ccccn1
[1]
  TGI: 0.307 µM
[2]
  TGI: 0.111 µM
[3]
  TGI: 0.11 µM
[4]
  TGI: 0.48 µM and 1.38 µM
[5]
  TGI: > 5.39 µM
[6]
  GI50: 0.0117 µM
  TGI: 1.36 µM and 1.21 µM
[7]
  TGI: 3.19 µM and 1.54 µM
[8]
  GI50: 1.09 µM
  TGI: > 5.42 µM and 2.46 µM
[9]
  TGI: > 3.55 µM
[10]
  TGI: 1.33 µM and 1.34 µM

## CC1=CC=NN2C(=O)[C@H](C)C2C1 (stereo not given in full)
[1]
  TGI: > 100 µM
[2]
  TGI: > 100 µM
[3]
  TGI: > 100 µM
[4]
  TGI: > 100 µM
[5]
  TGI: > 100 µM
[6]
  TGI: > 100 µM
[7]
  TGI: > 100 µM
[8]
  TGI: > 100 µM
[9]
  TGI: > 100 µM
[10]
  TGI: > 100 µM

## COc1ccc2[nH]cc(CCNC(C)=O)c2c1
[1]
  TGI: > 100 µM
[2]
  TGI: > 100 µM
[3]
  TGI: > 100 µM
[4]
  TGI: > 100 µM
[5]
  TGI: > 100 µM
[6]
  TGI: 24.1 µM
[7]
  TGI: > 100 µM
[8]
  TGI: > 100 µM
[9]
  TGI: > 100 µM
[10]
  TGI: > 100 µM

## O=C(Cc1nc2ccccc2s1)C(=O)Nc1ccc(Cl)cc1
[1]
  TGI: > 100 µM
[2]
  TGI: > 100 µM
[3]
  TGI: > 100 µM
[4]
  TGI: > 100 µM
[5]
  TGI: > 100 µM
[6]
  TGI: > 100 µM
[7]
  TGI: > 100 µM
[8]
  TGI: > 100 µM
[9]
  TGI: > 100 µM
[10]
  TGI: > 100 µM

## COc1cccc(N2C(=O)c3c(c4[nH]c5ccccc5c4c4ccc(C(C)(C)C)cc34)C2=O)c1
[1]
  TGI: > 100 µM
[2]
  TGI: > 100 µM
[3]
  TGI: > 100 µM
[4]
  TGI: > 100 µM
[6]
  TGI: > 100 µM
[7]
  TGI: > 100 µM
[8]
  TGI: > 100 µM
[9]
  TGI: > 100 µM
[10]
  TGI: > 100 µM

## COc1cc(Nc2cnc3cc(C(F)(F)F)ccc3n2)cc(OC)c1OC
[4]
  TGI: > 100 µM
[5]
  TGI: > 100 µM
[6]
  TGI: > 100 µM
[7]
  TGI: > 100 µM
[8]
  TGI: > 100 µM
[9]
  TGI: > 100 µM
[10]
  TGI: > 100 µM

## CCN(CC)CCCN(c1cc(OC)cc2nccnc12)S(=O)(=O)c1ccc(C)cc1
[1]
  TGI: > 100 µM
[2]
  TGI: > 100 µM
[3]
  TGI: > 100 µM
[4]
  TGI: > 100 µM
[5]
  TGI: > 100 µM
[6]
  TGI: > 100 µM
[7]
  TGI: > 100 µM
[8]
  TGI: > 100 µM
[10]
  TGI: > 100 µM

## COc1ccc(OCC(=O)O)c2c1CCC(C(C)C)C2=O (stereo not given)
[1]
  TGI: > 100 µM
[2]
  TGI: > 100 µM
[3]
  TGI: > 100 µM
[4]
  TGI: > 100 µM
[5]
  TGI: > 100 µM
[6]
  TGI: > 100 µM
[7]
  TGI: > 100 µM
[8]
  TGI: > 100 µM
[9]
  TGI: > 100 µM
[10]
  TGI: > 100 µM

## CC(=O)Nc1ccc(/C=C(\NC(=O)c2ccccc2)c2nc3ccc4c(c3[nH]2)C(=O)c2ccccc2C4=O)cc1
[1]
  TGI: > 100 µM
[2]
  TGI: > 100 µM
[3]
  TGI: > 100 µM
[4]
  TGI: > 100 µM
[5]
  TGI: > 100 µM
[6]
  TGI: > 100 µM
[7]
  TGI: > 100 µM
[8]
  TGI: > 100 µM
[9]
  TGI: > 100 µM
[10]
  TGI: > 100 µM

## COc1nc2c(OC)cccc2c(OC)c1C=O
[1]
  TGI: > 100 µM
[2]
  TGI: > 100 µM
[3]
  TGI: > 100 µM
[4]
  TGI: > 100 µM
[5]
  TGI: > 100 µM
[6]
  TGI: > 100 µM
[7]
  TGI: > 100 µM
[8]
  TGI: > 100 µM
[9]
  TGI: > 100 µM

## O=C1NC(=O)C(C(=O)C(=O)Nc2ccc(Br)cc2)C(=O)N1
[1]
  TGI: > 100 µM
[2]
  TGI: > 100 µM
[3]
  TGI: > 100 µM
[4]
  TGI: > 100 µM
[5]
  TGI: > 100 µM
[6]
  TGI: > 100 µM
[7]
  TGI: > 100 µM
[9]
  TGI: > 100 µM
[10]
  TGI: > 100 µM

## CC(C)(C)NNC(=O)/C(=C/c1ccc(Oc2ccc(Cl)c(Cl)c2)cc1)NC(=O)c1ccccc1
[1]
  TGI: > 100 µM
[2]
  TGI: 35.9 µM
[3]
  TGI: > 100 µM
[4]
  TGI: > 100 µM
[5]
  TGI: > 100 µM
[7]
  TGI: 40.1 µM
[8]
  TGI: > 100 µM
[9]
  TGI: > 100 µM
[10]
  TGI: > 100 µM

## O=S(=O)([O-])[O-].[OH3+].[OH3+].[OH3+].[Ru+2].c1ccccc1
[2]
  GI50: > 100 µM
  TGI: > 100 µM
[3]
  GI50: > 100 µM
  TGI: > 100 µM
[4]
  GI50: > 100 µM
  TGI: > 100 µM
[5]
  GI50: > 100 µM
  TGI: > 100 µM
[8]
  GI50: > 100 µM
  TGI: > 100 µM
[9]
  GI50: > 100 µM
  TGI: > 100 µM
[10]
  GI50: > 100 µM
  TGI: > 100 µM

## CSC(=S)c1ccc(C(=S)SC)cc1
[1]
  TGI: > 100 µM
[2]
  TGI: > 100 µM
[3]
  TGI: > 100 µM
[4]
  TGI: > 100 µM
[5]
  TGI: > 100 µM
[6]
  TGI: > 100 µM
[7]
  TGI: > 100 µM
[8]
  TGI: > 100 µM
[9]
  TGI: > 100 µM
[10]
  TGI: > 100 µM

## CCCc1c2c([nH]c(=O)c1C)C(=O)c1[nH]c(=O)c(C)c(CCC)c1C2=O
[2]
  TGI: 16.4 µM
[3]
  TGI: 67.1 µM
[5]
  TGI: 18.7 µM
[6]
  TGI: 20.2 µM
[7]
  TGI: 55.3 µM
[8]
  TGI: > 100 µM
[9]
  TGI: 36.7 µM

## CCOC(=N)CC(=O)Nc1ccc(Cl)cc1
[1]
  TGI: > 100 µM
[3]
  TGI: > 100 µM
[4]
  TGI: > 100 µM
[5]
  TGI: > 100 µM
[6]
  TGI: > 100 µM
[7]
  TGI: > 100 µM
[8]
  TGI: > 100 µM
[9]
  TGI: > 100 µM
[10]
  TGI: > 100 µM

## C/C(=N\NC(=S)N1CCCCCC1)c1nccnc1C
[2]
  TGI: 0.0275 µM
[3]
  TGI: > 100 µM
[4]
  TGI: > 100 µM
[5]
  TGI: > 100 µM
[6]
  TGI: > 100 µM
[7]
  TGI: > 100 µM
[8]
  TGI: > 100 µM
[10]
  TGI: > 100 µM

## O=C(O)c1ccc(NC(=O)C2C(=O)C(=O)N(c3ccc(C(=O)O)cc3)C2=O)cc1 (stereo not given)
[1]
  TGI: > 100 µM
[3]
  TGI: > 100 µM
[4]
  TGI: > 100 µM
[5]
  TGI: > 100 µM
[6]
  TGI: > 100 µM
[7]
  TGI: > 100 µM
[8]
  TGI: > 100 µM
[9]
  TGI: > 100 µM
[10]
  TGI: > 100 µM

## Cc1ccc(S(=O)(=O)N/N=C(\CCN2CCCC2)CC(c2ccccc2)c2c(O)c3ccccc3oc2=O)cc1 (stereo not given)
[1]
  TGI: > 100 µM
[3]
  TGI: > 100 µM
[4]
  TGI: > 100 µM
[5]
  TGI: > 100 µM
[6]
  TGI: > 100 µM
[7]
  TGI: > 100 µM
[8]
  TGI: > 100 µM
[9]
  TGI: > 100 µM
[10]
  TGI: > 100 µM

## O=P(c1ccccc1)(c1ccccc1)C1CC=C(c2ccccc2)C2(CCCC2)C1 (stereo not given)
[2]
  TGI: > 100 µM
[3]
  TGI: > 100 µM
[4]
  TGI: > 100 µM
[5]
  TGI: > 100 µM
[6]
  TGI: > 100 µM
[7]
  TGI: > 100 µM
[8]
  TGI: > 100 µM
[9]
  TGI: > 100 µM
[10]
  TGI: > 100 µM

## CCCCCCCCCCCCCS(=O)(=O)O
[1]
  TGI: > 100 µM
[2]
  TGI: > 100 µM
[4]
  TGI: > 100 µM
[5]
  TGI: > 100 µM
[6]
  TGI: > 100 µM
[7]
  TGI: > 100 µM
[8]
  TGI: > 100 µM
[9]
  TGI: > 100 µM
[10]
  TGI: > 100 µM

Source: PubChem BioAssay (NCI)
